Experimental findings from article PMC8048867 (Chemmedchem, 2020) are described below.

Data set [1] addresses T1, recombinant human meprin β (Homo sapiens, UniProt Q16820).
T1 sequence (Q16820 62-701): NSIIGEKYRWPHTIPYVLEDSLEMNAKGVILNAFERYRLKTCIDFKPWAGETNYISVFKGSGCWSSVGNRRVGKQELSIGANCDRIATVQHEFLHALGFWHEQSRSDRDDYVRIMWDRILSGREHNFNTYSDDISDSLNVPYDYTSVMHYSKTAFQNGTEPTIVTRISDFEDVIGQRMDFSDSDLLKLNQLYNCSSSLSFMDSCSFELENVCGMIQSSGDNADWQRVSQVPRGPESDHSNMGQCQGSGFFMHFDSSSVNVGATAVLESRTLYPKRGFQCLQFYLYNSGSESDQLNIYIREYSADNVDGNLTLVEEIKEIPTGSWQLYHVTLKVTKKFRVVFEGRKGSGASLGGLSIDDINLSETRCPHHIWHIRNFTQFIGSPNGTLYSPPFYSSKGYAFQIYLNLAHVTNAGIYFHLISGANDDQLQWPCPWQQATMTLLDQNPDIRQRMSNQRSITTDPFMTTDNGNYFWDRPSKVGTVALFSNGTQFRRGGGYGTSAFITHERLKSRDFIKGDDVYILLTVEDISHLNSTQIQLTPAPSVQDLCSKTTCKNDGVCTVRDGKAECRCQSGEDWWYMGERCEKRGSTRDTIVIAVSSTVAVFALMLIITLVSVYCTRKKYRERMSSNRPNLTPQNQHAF
Kind of data set: meprin β inhibition, quenched fluorogenic peptide substrate assay. The data set is classed as biochemical.

The nature of data set [2]: cell-viability assay. The data set is classed as cell-based. The note with it: human, Hep-G2 cells.
For the next data set, the target named is T2, mouse ovastacin (Mus musculus, UniProt Q6HA09).
T2 sequence (Q6HA09 86-435 limits assumed): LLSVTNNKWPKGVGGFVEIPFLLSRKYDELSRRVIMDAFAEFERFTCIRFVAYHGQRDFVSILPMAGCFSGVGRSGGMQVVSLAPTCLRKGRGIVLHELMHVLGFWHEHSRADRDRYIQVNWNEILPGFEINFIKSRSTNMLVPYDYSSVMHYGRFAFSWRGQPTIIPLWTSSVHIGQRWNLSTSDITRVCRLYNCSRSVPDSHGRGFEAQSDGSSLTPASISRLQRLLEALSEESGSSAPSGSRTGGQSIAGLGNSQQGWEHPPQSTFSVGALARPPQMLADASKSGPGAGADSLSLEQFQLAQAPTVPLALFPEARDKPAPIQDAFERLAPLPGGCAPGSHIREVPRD
Description: ovastacin inhibition, fluorogenic enzyme activity assay.

Data set [3] is described as follows: cell-viability assay. The class given is cell-based. The following applies: human, SH-SY5Y cells.
The target in the next data set is T3, ADAM10 (Homo sapiens, UniProt O14672).
T3 sequence (O14672 214-748): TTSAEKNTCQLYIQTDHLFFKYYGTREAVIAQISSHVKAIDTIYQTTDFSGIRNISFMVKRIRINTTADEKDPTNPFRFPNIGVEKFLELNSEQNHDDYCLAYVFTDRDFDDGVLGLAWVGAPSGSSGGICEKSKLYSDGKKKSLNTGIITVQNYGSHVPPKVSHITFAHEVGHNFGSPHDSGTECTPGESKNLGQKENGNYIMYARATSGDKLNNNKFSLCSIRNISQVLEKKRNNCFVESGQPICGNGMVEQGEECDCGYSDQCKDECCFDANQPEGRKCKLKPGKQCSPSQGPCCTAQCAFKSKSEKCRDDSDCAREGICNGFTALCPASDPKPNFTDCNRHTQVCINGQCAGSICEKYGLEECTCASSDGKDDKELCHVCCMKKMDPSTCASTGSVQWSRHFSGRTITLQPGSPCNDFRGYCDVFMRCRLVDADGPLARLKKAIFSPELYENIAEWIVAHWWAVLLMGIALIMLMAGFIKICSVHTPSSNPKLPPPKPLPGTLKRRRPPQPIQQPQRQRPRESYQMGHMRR
Description: off-target proteinase inhibition ADAM10. The note with it: read-out: Relative enzyme activity ADAM10. The data set is classed as biochemical.

A further data set deals with MMP13 (Homo sapiens, UniProt P45452). Description: off-target proteinase inhibition MMP13. The data set is classed as biochemical. The note with it: read-out: Relative enzyme activity MMP13.
In data set [4] the target is T4, recombinant human meprin α (Homo sapiens, UniProt Q16819).
T4 sequence (Q16819 66-746): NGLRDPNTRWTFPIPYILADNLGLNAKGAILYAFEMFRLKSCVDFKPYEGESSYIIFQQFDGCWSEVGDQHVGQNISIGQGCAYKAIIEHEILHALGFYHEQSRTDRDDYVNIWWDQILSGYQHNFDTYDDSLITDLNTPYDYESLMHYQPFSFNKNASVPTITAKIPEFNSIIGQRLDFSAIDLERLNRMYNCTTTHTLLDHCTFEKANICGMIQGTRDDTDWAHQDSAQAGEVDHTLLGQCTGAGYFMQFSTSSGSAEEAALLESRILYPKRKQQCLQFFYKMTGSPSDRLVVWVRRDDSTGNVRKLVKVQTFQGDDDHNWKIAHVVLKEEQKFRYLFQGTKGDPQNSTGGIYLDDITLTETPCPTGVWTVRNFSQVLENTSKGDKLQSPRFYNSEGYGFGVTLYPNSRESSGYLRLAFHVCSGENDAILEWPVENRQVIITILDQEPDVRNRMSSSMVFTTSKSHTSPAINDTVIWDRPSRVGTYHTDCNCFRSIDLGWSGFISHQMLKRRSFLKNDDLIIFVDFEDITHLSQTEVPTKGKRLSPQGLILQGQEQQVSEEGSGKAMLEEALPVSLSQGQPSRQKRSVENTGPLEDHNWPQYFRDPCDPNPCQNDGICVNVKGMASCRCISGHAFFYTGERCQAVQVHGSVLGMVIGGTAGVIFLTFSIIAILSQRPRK
Kind of data set: meprin α inhibition, quenched fluorogenic peptide substrate assay. The data set is classed as biochemical. The note with it: for SF: selectivity factor (K i app meprin β/K i app meprin α): meprin α over meprin β.

For the next data set, the target named is T5, MMP2 (Homo sapiens, UniProt P08253).
T5 sequence (P08253 110-660): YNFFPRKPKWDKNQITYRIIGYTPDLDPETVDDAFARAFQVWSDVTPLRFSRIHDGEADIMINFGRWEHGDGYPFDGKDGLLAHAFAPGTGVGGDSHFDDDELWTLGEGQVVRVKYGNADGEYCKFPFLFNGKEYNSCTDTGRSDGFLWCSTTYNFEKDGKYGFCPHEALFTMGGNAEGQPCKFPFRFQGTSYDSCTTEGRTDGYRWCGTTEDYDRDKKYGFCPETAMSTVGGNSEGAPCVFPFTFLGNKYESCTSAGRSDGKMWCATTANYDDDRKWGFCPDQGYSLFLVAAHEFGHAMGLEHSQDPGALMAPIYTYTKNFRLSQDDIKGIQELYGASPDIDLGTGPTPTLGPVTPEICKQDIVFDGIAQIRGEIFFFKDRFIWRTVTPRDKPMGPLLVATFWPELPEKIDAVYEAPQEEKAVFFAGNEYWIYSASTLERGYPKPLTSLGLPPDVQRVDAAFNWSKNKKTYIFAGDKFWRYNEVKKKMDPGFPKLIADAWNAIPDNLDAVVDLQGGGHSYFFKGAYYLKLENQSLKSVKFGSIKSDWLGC
Kind of data set: off-target proteinase inhibition MMP2. The data set is classed as biochemical. The note with it: read-out: Relative enzyme activity MMP2.

The target in another data set is MMP9 (Homo sapiens, UniProt P14780). Kind of data set: off-target proteinase inhibition MMP9. The data set is classed as biochemical. The following applies: read-out: Relative enzyme activity MMP9.
A further data set has as its target ADAM17 (Homo sapiens, UniProt P78536). Description: off-target proteinase inhibition ADAM17. The data set is classed as biochemical. The note with it: read-out: Relative enzyme activity ADAM17.

Chain of ADAM17 (P78536 215-824): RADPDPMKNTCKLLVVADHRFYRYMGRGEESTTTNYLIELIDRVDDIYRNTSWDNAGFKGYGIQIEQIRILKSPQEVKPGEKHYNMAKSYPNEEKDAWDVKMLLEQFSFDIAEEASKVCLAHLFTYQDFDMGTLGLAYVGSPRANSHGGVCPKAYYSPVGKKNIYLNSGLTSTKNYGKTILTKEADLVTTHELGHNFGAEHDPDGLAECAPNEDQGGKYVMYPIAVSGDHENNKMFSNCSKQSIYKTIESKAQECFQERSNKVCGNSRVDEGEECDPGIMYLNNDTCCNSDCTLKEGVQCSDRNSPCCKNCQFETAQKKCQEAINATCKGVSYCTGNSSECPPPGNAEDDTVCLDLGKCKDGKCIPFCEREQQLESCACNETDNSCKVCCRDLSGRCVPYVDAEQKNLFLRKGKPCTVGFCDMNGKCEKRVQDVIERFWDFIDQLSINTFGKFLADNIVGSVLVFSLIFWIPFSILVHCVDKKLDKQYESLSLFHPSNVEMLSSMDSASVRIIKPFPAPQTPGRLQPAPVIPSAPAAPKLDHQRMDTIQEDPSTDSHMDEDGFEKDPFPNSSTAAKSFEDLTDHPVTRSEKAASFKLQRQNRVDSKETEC
Chain of MMP9 (P14780 107-707 limits assumed): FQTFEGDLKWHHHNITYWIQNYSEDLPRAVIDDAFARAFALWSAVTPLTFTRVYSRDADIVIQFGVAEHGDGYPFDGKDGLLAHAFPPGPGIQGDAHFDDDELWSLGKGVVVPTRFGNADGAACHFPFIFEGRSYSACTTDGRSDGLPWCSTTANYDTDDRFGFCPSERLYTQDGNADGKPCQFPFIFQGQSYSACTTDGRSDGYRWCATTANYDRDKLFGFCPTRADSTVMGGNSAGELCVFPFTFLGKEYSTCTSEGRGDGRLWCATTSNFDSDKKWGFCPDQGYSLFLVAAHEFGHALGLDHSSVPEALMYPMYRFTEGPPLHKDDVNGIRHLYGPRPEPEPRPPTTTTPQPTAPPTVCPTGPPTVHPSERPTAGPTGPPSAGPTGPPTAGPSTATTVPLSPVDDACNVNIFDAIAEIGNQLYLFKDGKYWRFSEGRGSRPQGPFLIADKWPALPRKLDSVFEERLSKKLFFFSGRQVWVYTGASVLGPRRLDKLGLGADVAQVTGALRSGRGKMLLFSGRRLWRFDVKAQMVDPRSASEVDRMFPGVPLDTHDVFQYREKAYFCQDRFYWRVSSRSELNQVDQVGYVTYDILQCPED

In general, Ki refers to the dissociation constant of the complex between target and ligand, obtained from inhibition or displacement. As a reminder, the viability is a read-out of living cells in per cent, often relative to untreated cells. As to `O=C(CCc1c(-c2ccccc2)n[nH]c1-c1ccccc1)NO` [2 f, 3‐(3,5‐Diphenyl‐1H‐pyrazol‐4‐yl)propanehydroxamic acid], the Ki in [1] is 8030 nM; on mouse ovastacin, 2420 nM; in data set [4] it was 76 nM. Further, the viability at 24 h, 30 µM in “cell-viability assay [2]” and in “cell-viability assay [3]” was 93% each time. The “SF Meprin α: selectivity factor (K i app ovastacin/K i app meprin α)” value (from here on “SF Meprin α: selectivity factor”) on mouse ovastacin is 32. In addition, the “SF Meprin β: selectivity factor (K i app ovastacin/K i app meprin β)” value (“SF Meprin β: selectivity factor” below) at mouse ovastacin was 0.3. The remaining activity at 10 µM was found to be 66% on ADAM10; 93% at MMP13; 97% on MMP2; 93% on MMP9; 76% on ADAM17. For the same compound, the remaining activity at 200 µM was found to be 12% on ADAM10; 68% at MMP13; 77% on MMP2; 65% on MMP9; 27% at ADAM17. The “SF: selectivity factor (K i app meprin β/K i app meprin α)” value (shortened to “SF: selectivity factor”) in [4] stood at 106.

Take `O=C(Cn1c(-c2ccccc2)nc2ccccc21)NO` [4 c, 2‐(2‐Phenylbenzimidazol‐1‐yl)ethanehydroxamic acid]: the Ki is 1620 nM in data set [1], 2090 nM on mouse ovastacin and 163 nM in data set [4]. Besides, the viability at 24 h, 30 µM in the data set “cell-viability assay [2]” was 85%; in “cell-viability assay [3]”, 94%. Further, at mouse ovastacin, the “SF Meprin α: selectivity factor” value was determined as 13. The “SF Meprin β: selectivity factor” value on mouse ovastacin was 1.3. The remaining activity at 10 µM at ADAM10 came out at 87%; on MMP13, 102%; on MMP2 it was 89%; at MMP9, 96%; at ADAM17, 92%. The remaining activity at 200 µM came out at 76% on ADAM10; 72% on MMP13; 46% at MMP2; 68% on MMP9; 56% on ADAM17. For the same compound, the “SF: selectivity factor” value in data set [4] is 10.

As for `O=C(CCc1c(-c2ccccc2)noc1-c1ccccc1)NO` [2 d, 3‐(3,5‐Diphenylisoxazol‐4‐yl)propanehydroxamic acid], the figures for the Ki in [1] and in data set [4] were 13500 nM and 31 nM, respectively. Moreover, the values for the viability at 24 h, 30 µM in the data set “cell-viability assay [2]” and in the data set “cell-viability assay [3]” were 90% and 123%, respectively. Besides, the remaining activity at 10 µM on ADAM10 amounted to 75%; on MMP13, 79%; at MMP2, 98%; at MMP9, 89%; on ADAM17, 75%. In addition, the remaining activity at 200 µM on ADAM10 amounted to 21%; at MMP13, 66%; on MMP2, 74%; at MMP9, 39%; on ADAM17, 24%. Also, the “SF: selectivity factor” value in [4] came to 435.

Take `O=C(Cc1c(-c2ccccc2)n[nH]c1-c1ccccc1)NO` [2 e, 2‐(3,5‐Diphenyl‐1H‐pyrazol‐4‐yl)ethanehydroxamic acid]: the Ki in data set [1] was 199 nM; at mouse ovastacin, 196 nM; in [4], 3 nM. The “SF Meprin α: selectivity factor” value at mouse ovastacin worked out at 65. In addition, on mouse ovastacin, the “SF Meprin β: selectivity factor” value was 1. The remaining activity at 10 µM at ADAM10 came out at 73%; at MMP13 it was 75%; at MMP2 it was 104%; on MMP9, 81%; at ADAM17, 61%. The remaining activity at 200 µM on ADAM10 came to 23%; on MMP13, 67%; at MMP2, 61%; at MMP9, 27%; at ADAM17, 7%. Also, the “SF: selectivity factor” value in data set [4] is 66.

For `O=C(Cn1c(-c2ccccc2)cc2ccccc21)NO` [4 a, 2‐(2‐Phenylindol‐1‐yl)ethanehydroxamic acid], the Ki came out at 1080 nM in data set [1], 93 nM on mouse ovastacin and 69 nM in [4]. At mouse ovastacin, the “SF Meprin α: selectivity factor” value came out at 1.3. For the same compound, the “SF Meprin β: selectivity factor” value on mouse ovastacin turned out to be 0.1. In addition, the remaining activity at 10 µM worked out at 89% at ADAM10; 77% at MMP13; 85% at MMP2; 90% at MMP9; 88% on ADAM17. The remaining activity at 200 µM stood at 68% at ADAM10; 54% at MMP13; 41% on MMP2; 53% at MMP9; 56% on ADAM17. Moreover, in data set [4], the “SF: selectivity factor” value was 16.
